Measurements published in ChEMBL document CHEMBL1133183, “Quantized surface complementarity diversity (QSCD): a model based on small molecule-target complementarity” (J Med Chem, 2000).
Each block holds one molecule with its values, some of them ahead of it.

Key:
[1] = Inhibitory activity against DNA topoisomerase I
[2] = target: T1, Type-1 angiotensin II receptor (Oryctolagus cuniculus, UniProt P34976); assay: Binding affinity to Angiotensin II receptor, type 1
T1 sequence (P34976 whole entry): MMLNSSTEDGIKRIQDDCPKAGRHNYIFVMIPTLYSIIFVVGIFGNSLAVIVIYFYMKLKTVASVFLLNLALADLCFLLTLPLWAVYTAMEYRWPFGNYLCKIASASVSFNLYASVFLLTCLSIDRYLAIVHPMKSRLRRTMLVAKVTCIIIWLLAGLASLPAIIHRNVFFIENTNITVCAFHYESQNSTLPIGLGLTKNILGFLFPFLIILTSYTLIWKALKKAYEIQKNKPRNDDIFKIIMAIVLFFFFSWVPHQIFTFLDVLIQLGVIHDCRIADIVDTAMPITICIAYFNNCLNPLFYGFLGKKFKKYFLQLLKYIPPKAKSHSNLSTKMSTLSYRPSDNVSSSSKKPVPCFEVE

[3] = target: Adenosine receptor A2a (Rattus norvegicus, UniProt P30543); assay: Binding affinity to Adenosine A2A receptor
Chain of Adenosine receptor A2a (P30543 whole entry): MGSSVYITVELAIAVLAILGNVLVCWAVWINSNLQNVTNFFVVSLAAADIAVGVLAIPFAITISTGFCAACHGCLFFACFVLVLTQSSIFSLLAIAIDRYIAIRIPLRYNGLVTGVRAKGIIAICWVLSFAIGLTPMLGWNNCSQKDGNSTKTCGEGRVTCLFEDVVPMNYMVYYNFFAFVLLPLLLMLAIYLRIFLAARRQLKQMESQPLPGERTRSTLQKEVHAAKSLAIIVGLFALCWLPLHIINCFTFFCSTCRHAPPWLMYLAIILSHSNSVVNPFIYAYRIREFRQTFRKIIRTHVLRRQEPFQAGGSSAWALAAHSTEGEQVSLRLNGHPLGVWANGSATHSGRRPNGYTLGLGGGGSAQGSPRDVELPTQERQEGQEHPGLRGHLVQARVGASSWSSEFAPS

[4] = target: T2, Type-2 angiotensin II receptor (Rattus norvegicus, UniProt P35351); assay: Inhibitory activity against Angiotensin II receptor, type 2 binding
T2 sequence (P35351 whole entry): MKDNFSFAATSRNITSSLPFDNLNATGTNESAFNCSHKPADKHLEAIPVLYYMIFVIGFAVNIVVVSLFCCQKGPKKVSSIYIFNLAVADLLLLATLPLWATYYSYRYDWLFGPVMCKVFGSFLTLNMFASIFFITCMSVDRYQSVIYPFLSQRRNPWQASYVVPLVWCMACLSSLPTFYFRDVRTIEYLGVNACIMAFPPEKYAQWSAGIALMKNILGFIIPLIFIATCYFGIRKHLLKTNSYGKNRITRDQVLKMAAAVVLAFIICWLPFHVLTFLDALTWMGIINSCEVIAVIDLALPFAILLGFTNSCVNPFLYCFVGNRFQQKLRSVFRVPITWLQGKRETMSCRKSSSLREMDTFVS

[5] = target: T2, Type-2 angiotensin II receptor; assay: Binding affinity to Angiotensin II receptor, type 2
[6] = target: T3, Endothelin-1 receptor (Homo sapiens, UniProt P25101); assay: Binding affinity to Endothelin A receptor
T3 sequence (P25101 whole entry): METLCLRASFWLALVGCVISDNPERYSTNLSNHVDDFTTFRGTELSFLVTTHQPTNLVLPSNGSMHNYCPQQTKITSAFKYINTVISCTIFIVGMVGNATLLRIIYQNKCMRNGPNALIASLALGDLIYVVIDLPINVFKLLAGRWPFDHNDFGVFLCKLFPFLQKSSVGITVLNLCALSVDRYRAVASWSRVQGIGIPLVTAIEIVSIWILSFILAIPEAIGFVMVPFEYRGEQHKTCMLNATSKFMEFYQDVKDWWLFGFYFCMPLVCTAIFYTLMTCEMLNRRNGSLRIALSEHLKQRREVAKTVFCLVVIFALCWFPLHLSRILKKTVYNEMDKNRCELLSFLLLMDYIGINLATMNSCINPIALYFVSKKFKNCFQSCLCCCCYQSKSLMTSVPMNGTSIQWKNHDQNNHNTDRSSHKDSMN

[7] = target: Leukotriene B4 receptor 1 (Homo sapiens, UniProt Q15722); assay: Binding affinity to leukotriene B4 receptor
Chain of Leukotriene B4 receptor 1 (Q15722 whole entry): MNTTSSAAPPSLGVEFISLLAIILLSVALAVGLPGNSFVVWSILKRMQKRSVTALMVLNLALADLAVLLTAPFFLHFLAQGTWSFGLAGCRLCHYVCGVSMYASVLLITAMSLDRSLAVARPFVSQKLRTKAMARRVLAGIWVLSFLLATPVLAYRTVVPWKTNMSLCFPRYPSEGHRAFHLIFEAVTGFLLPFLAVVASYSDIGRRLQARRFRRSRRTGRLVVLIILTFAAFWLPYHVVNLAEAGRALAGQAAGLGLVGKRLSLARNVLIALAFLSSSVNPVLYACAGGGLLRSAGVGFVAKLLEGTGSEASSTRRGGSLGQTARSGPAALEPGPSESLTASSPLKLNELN

[8] = target: Prolyl endopeptidase (Sus scrofa, UniProt P23687); assay: Inhibition of Prolyl endopeptidase activity; type: functional
Chain of Prolyl endopeptidase (P23687 whole entry): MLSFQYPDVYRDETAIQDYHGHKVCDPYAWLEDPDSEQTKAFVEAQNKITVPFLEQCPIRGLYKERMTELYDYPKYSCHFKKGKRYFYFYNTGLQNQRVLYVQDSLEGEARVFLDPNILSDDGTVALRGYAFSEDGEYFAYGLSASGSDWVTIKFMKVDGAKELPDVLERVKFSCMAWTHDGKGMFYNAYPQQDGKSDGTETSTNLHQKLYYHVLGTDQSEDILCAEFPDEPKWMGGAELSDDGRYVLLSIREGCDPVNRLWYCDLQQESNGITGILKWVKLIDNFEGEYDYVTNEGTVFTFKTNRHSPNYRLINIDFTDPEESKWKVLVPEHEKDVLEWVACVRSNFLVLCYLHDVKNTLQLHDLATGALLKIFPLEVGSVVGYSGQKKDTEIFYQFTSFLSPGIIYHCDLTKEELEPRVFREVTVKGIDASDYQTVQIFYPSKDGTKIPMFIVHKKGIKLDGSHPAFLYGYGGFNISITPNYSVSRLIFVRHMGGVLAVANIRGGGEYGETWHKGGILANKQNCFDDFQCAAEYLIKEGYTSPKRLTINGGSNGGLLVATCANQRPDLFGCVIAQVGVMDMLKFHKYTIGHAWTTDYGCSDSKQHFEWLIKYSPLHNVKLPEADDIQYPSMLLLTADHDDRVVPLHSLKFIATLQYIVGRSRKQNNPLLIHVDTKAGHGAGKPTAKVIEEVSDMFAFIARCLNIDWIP

- Ki [2]: 1.2 nM
SMILES: CCCCc1nn(-c2ccccc2C(F)(F)F)c(=O)n1Cc1ccc(-c2ccccc2-c2nnn[nH]2)cc1

- IC50 [4]: 31 nM
- Ki [5]: 173 nM
SMILES: CCCCc1nn(-c2cccc([N+](=O)[O-])c2)c(=O)n1Cc1ccc(-c2ccccc2S(=O)(=O)NC(=O)c2ccccc2Cl)cc1

- Ki [6]: 170 nM
SMILES: COc1ccc(CC2C(c3ccc(Cl)c(Cl)c3)C(=O)O[C@@]2(O)c2ccc(OC)cc2)cc1 (stereo partly drawn)

- Ki [7]: 3.2 nM
SMILES: CCCc1c(OCCCOc2ccc(-c3cscn3)c(COC)c2CC2CC2)ccc2c1O[C@@H](C(=O)O)CC2

- Ki [2]: 1.4 nM
SMILES: CCCCc1nn(-c2ccccc2C(C)C)c(=O)n1Cc1ccc(-c2ccccc2-c2nn[nH]n2)cc1

- IC50 [4]: 0.45 nM
- Ki [5]: 17 nM
SMILES: CCCCc1nn(-c2ccccc2C(F)(F)F)c(=O)n1Cc1ccc(-c2ccccc2S(=O)(=O)NC(=O)OC(C)(C)C)cc1

The remaining lines, values behind:

SMILES: CC[C@@]1(O)C(=O)OCc2c1cc1n(c2=O)Cc2c-1nc1cnc(Br)cc1c2C
- IC50 [1]: 28 nM

SMILES: CCNC(=O)[C@H]1C[C@@H](n2cnc3c(N)nc(C#Cc4nccs4)nc32)[C@H](OC)[C@@H]1OC
- Ki [3]: 41.3 nM

SMILES: CCCc1c(OCCCOc2ccc3c(c2CCC)O[C@@H](C(=O)O)CC3)ccc(C(C)=O)c1CO
- Ki [7]: 320 nM

SMILES: CC[C@@]1(O)C(=O)OCc2c1cc1n(c2=O)Cc2c-1nc1cnc(C#N)cc1c2C
- IC50 [1]: 143 nM

SMILES: CCOC(=O)C(=O)[C@@H]1CCCN1C(=O)[C@@H]1CCCN1C(=O)CCCc1ccccc1
- IC50 [8]: 10.3 nM
